System: 945468-187-T-J2-PDC spheroids viability
Test: Anticancer human tumor 945468-187-T-J2-PDC patient-derived rectal carcinoma cell line growth inhibition [PI3K]
Details: spheroids with HUVEC and MSC; for IC50: curve of first compound; for viability, T/C: stronger effect = lower value
Method in brief: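 Agents were dosed from a top concentration near clinical Cmax (otherwise 10 microM) in half-log decrements, alone or combined with PI3K inhibitors. The spheroids contain tumor cells plus endothelial (HUVEC) and MSC stroma; viability is measured.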
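Also: spheroids exposed to compounds for seven days before reading.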

## C[C@@H](NC(=O)c1ncnc(N)c1Cl)c1ncc(C(=O)Nc2cc(C(F)(F)F)c(Cl)cn2)s1 + CC(Nc1ccc2c(c1)OCCn1cc(N3C(=O)OCC3C(F)F)nc1-2)C(N)=O
Second compound 0.00316 µM
  IC50: > 10 µM
Second compound 0.01 µM
  IC50: > 10 µM
Second compound 0.0316 µM
  IC50: > 10 µM
Second compound 0.1 µM
  IC50: > 10 µM
Second compound 0.316 µM
  IC50: > 10 µM
Second compound 1 µM
  IC50: > 10 µM
Second compound 0.00316 µM, first compound 0.0316 µM
  viability, T/C: 94.6%
Second compound 0.00316 µM, first compound 0.1 µM
  viability, T/C: 117%
Second compound 0.00316 µM, first compound 0.316 µM
  viability, T/C: 127%
Second compound 0.00316 µM, first compound 1 µM
  viability, T/C: 75.7%
Second compound 0.00316 µM, first compound 3.16 µM
  viability, T/C: 136%
Second compound 0.00316 µM, first compound 10 µM
  viability, T/C: 96.7%
Second compound 0.01 µM, first compound 0.0316 µM
  viability, T/C: 99.2%
Second compound 0.01 µM, first compound 0.1 µM
  viability, T/C: 71.4%
Second compound 0.01 µM, first compound 0.316 µM
  viability, T/C: 115%
Second compound 0.01 µM, first compound 1 µM
  viability, T/C: 87.5%
Second compound 0.01 µM, first compound 3.16 µM
  viability, T/C: 98.3%
Second compound 0.01 µM, first compound 10 µM
  viability, T/C: 108%
Second compound 0.0316 µM, first compound 0.0316 µM
  viability, T/C: 84.9%
Second compound 0.0316 µM, first compound 0.1 µM
  viability, T/C: 104%
Second compound 0.0316 µM, first compound 0.316 µM
  viability, T/C: 115%
Second compound 0.0316 µM, first compound 1 µM
  viability, T/C: 103%
Second compound 0.0316 µM, first compound 3.16 µM
  viability, T/C: 112%
Second compound 0.0316 µM, first compound 10 µM
  viability, T/C: 90.3%
Second compound 0.1 µM, first compound 0.0316 µM
  viability, T/C: 105%
Second compound 0.1 µM, first compound 0.1 µM
  viability, T/C: 112%
Second compound 0.1 µM, first compound 0.316 µM
  viability, T/C: 104%
Second compound 0.1 µM, first compound 1 µM
  viability, T/C: 96.8%
Second compound 0.1 µM, first compound 3.16 µM
  viability, T/C: 97.7%
Second compound 0.1 µM, first compound 10 µM
  viability, T/C: 93%
Second compound 0.316 µM, first compound 0.0316 µM
  viability, T/C: 72.5%
Second compound 0.316 µM, first compound 0.1 µM
  viability, T/C: 103%
Second compound 0.316 µM, first compound 0.316 µM
  viability, T/C: 105%
Second compound 0.316 µM, first compound 1 µM
  viability, T/C: 88.2%
Second compound 0.316 µM, first compound 3.16 µM
  viability, T/C: 86.7%
Second compound 0.316 µM, first compound 10 µM
  viability, T/C: 97.2%
Second compound 1 µM, first compound 0.0316 µM
  viability, T/C: 68.7%
Second compound 1 µM, first compound 0.1 µM
  viability, T/C: 73.4%
Second compound 1 µM, first compound 0.316 µM
  viability, T/C: 67.5%
Second compound 1 µM, first compound 1 µM
  viability, T/C: 79.3%
Second compound 1 µM, first compound 3.16 µM
  viability, T/C: 94.4%
Second compound 1 µM, first compound 10 µM
  viability, T/C: 83.9%

## Cn1cnc2c(F)c(Nc3ccc(Br)cc3Cl)c(C(=O)NOCCO)cc21 + CC(Nc1ncnc2nc[nH]c12)c1cc2cccc(Cl)c2c(=O)n1-c1ccccc1
Second compound 0.0316 µM
  IC50: > 3 µM
Second compound 0.1 µM
  IC50: > 3 µM
Second compound 0.316 µM
  IC50: > 3 µM
Second compound 1 µM
  IC50: > 3 µM
Second compound 3.16 µM
  IC50: > 3 µM
Second compound 10 µM
  IC50: > 3 µM
Second compound 0.0316 µM, first compound 0.00949 µM
  viability, T/C: 100%
Second compound 0.0316 µM, first compound 0.03 µM
  viability, T/C: 103%
Second compound 0.0316 µM, first compound 0.0949 µM
  viability, T/C: 84.1%
Second compound 0.0316 µM, first compound 0.3 µM
  viability, T/C: 92.8%
Second compound 0.0316 µM, first compound 0.949 µM
  viability, T/C: 92%
Second compound 0.0316 µM, first compound 3 µM
  viability, T/C: 73.7%
Second compound 0.1 µM, first compound 0.00949 µM
  viability, T/C: 99.3%
Second compound 0.1 µM, first compound 0.03 µM
  viability, T/C: 82.1%
Second compound 0.1 µM, first compound 0.0949 µM
  viability, T/C: 85.1%
Second compound 0.1 µM, first compound 0.3 µM
  viability, T/C: 93%
Second compound 0.1 µM, first compound 0.949 µM
  viability, T/C: 83.1%
Second compound 0.1 µM, first compound 3 µM
  viability, T/C: 74%
Second compound 0.316 µM, first compound 0.00949 µM
  viability, T/C: 111%
Second compound 0.316 µM, first compound 0.03 µM
  viability, T/C: 90.8%
Second compound 0.316 µM, first compound 0.0949 µM
  viability, T/C: 92.4%
Second compound 0.316 µM, first compound 0.3 µM
  viability, T/C: 91.8%
Second compound 0.316 µM, first compound 0.949 µM
  viability, T/C: 81.5%
Second compound 0.316 µM, first compound 3 µM
  viability, T/C: 80.3%
Second compound 1 µM, first compound 0.00949 µM
  viability, T/C: 122%
Second compound 1 µM, first compound 0.03 µM
  viability, T/C: 106%
Second compound 1 µM, first compound 0.0949 µM
  viability, T/C: 79.7%
Second compound 1 µM, first compound 0.3 µM
  viability, T/C: 88.3%
Second compound 1 µM, first compound 0.949 µM
  viability, T/C: 81.8%
Second compound 1 µM, first compound 3 µM
  viability, T/C: 82.7%
Second compound 3.16 µM, first compound 0.00949 µM
  viability, T/C: 81.6%
Second compound 3.16 µM, first compound 0.03 µM
  viability, T/C: 94.3%
Second compound 3.16 µM, first compound 0.0949 µM
  viability, T/C: 104%
Second compound 3.16 µM, first compound 0.3 µM
  viability, T/C: 107%
Second compound 3.16 µM, first compound 0.949 µM
  viability, T/C: 81.7%
Second compound 3.16 µM, first compound 3 µM
  viability, T/C: 79.9%
Second compound 10 µM, first compound 0.00949 µM
  viability, T/C: 92.7%
Second compound 10 µM, first compound 0.03 µM
  viability, T/C: 94.1%
Second compound 10 µM, first compound 0.0949 µM
  viability, T/C: 97.9%
Second compound 10 µM, first compound 0.3 µM
  viability, T/C: 91.5%
Second compound 10 µM, first compound 0.949 µM
  viability, T/C: 83.8%
Second compound 10 µM, first compound 3 µM
  viability, T/C: 72%
